We go through 16 compounds from EP4817687A2, “NUCLEOTIDE AND NUCLEOSIDE THERAPEUTIC COMPOSITIONS AND USES RELATED THERETO” (Emory University, priority 2013, dated 2015).

Data set [1] can be described thus: Cytotoxicity panel (CC50), Huh-7. The format is cell-based, human. The conditions noted are these: human, huh-7 cells.
A short description of data set [2]: Cytotoxicity panel (CC50), BxPC3. The format is cell-based. The conditions noted are these: human, bxpc3 cells.
Data set [3] is described as follows: Cytotoxicity panel (CC50), A204. It is filed as cell-based. The conditions noted are these: human, a204 cells.
Data set [4] can be described thus: Cytotoxicity panel (CC50), IEC-6. The format is cell-based. The conditions noted are these: rat, iec-6 cells.
Data set [5] in a line: Cytotoxicity panel (CC50), H9c. It is filed as cell-based. The conditions noted are these: rat, h9c cells.
A short description of data set [6]: Cytotoxicity panel (CC50), HepG2. The note with it: human, hepg2 cells. The format is cell-based.
Data set [7] can be described thus: Cytotoxicity panel (CC50), CEM. It is filed as cell-based. The note with it: human, cem cells.
The target in the next data set is HCV NS5B polymerase (Hepatitis C virus genotype 1b, UniProt Q9WMX2). The data set is described as follows: HCV NS5B pol assay (NS5B RNA-dependent RNA polymerase reaction, filter binding). The format is biochemical. The note with it: 1 h; for IC25: read-out: HCV NS5B pol assay (^32P-GTP) IC25; for IC95: read-out: HCV NS5B pol assay (^32P-GTP) IC95.

What is called CC50 is the concentration at which the toxic effect on the cells reaches its halfway point. A higher CC50 goes with lower toxicity to the cells. In the case of `CC(C)OC(=O)[C@H](C)NP(=O)(OC[C@H]1O[C@@H](n2ccc(=S)[nH]c2=O)[C@](C)(F)[C@@H]1O)Oc1ccccc1` (some centres unmarked), the CC50 in data set [1] is greater than 300 µM; in data set [2], greater than 300 µM; in data set [3] it was greater than 200 µM; in data set [4] it was greater than 400 µM; in data set [5] it was greater than 400 µM.
In turn, `O=c1[nH]c(=S)ccn1[C@@H]1O[C@H](CO)[C@@H](O)[C@H]1O` showed a half-maximal cytotoxic concentration (CC50) in data set [1] of 60 µM.
For the compound `CC(C)OC(=O)[C@H](C)NP(=O)(OC[C@H]1O[C@@H](n2ccc(=O)[nH]c2=S)[C@H](O)[C@@H]1O)Oc1ccccc1` (some centres unmarked) [drawing 463], the cytotoxic concentration (CC50) in data set [1], in data set [6] and in data set [7] was greater than 400 µM throughout.
What is called IC25 is the point of the concentration-response curve where the effect stands at 25%. For orientation: IC95 means the concentration at which the effect reaches the 95% level. Turning to `C[C@@]1(F)[C@H](O)[C@@H](COP(=O)(O)OP(=O)(O)OP(=O)(O)O)O[C@H]1n1ccc(=O)[nH]c1=O`, at HCV NS5B polymerase, the IC25 was 0.52 µM and the IC95 came to 9.91 µM.
For `CC(C)OC(=O)[C@H](C)NP(=O)(OC[C@H]1O[C@@H](n2ccc(=O)[nH]c2=S)[C@](C)(O)[C@@H]1O)Oc1ccccc1` (some centres unmarked) [drawing 453], the CC50 in data set [1] is greater than 400 µM; in data set [6] it was greater than 400 µM; in data set [2], greater than 300 µM; in data set [7], greater than 300 µM; in data set [3] it was 98 µM; in data set [4], greater than 200 µM. Also, in data set [5], the CC50 is greater than 200 µM.
Take `CC(C)OC(=O)[C@H](C)NP(=O)(OC[C@H]1O[C@@H](n2ccc(=S)[nH]c2=O)[C@](C)(O)[C@@H]1O)Oc1ccccc1` (some centres unmarked) [drawing 455]: the CC50 in data set [1] was greater than 400 µM; in data set [6] it was greater than 400 µM; in data set [2], greater than 300 µM; in data set [7] it was 169 µM; in data set [3], greater than 200 µM; in data set [4], greater than 400 µM. This compound showed a CC50 in data set [5] greater than 200 µM.
Turning to `C[C@@]1(O)[C@H](O)[C@@H](CO)O[C@H]1n1ccc(=O)[nH]c1=S` [drawing 452], the CC50 in data set [1] was greater than 100 µM; in data set [6] it was greater than 400 µM; in data set [2], greater than 100 µM; in data set [7], greater than 200 µM.
With `CC(C)OC(=O)[C@H](C)N[P@@](=O)(OC[C@H]1O[C@@H](n2ccc(=O)[nH]c2=O)[C@](C)(F)[C@@H]1O)Oc1ccccc1`, the CC50 in data set [1], in data set [6] and in data set [7] was greater than 400 µM in each case.
Regarding `C[C@@]1(O)[C@H](O)[C@@H](COP(=O)(O)OP(=O)(O)OP(=O)(O)O)O[C@H]1n1ccc(=O)[nH]c1=[Se]`, on HCV NS5B polymerase, the IC25 was 6.82 µM and the concentration for an effect of 95% (IC95) was greater than 100 µM.
In data set [7], `CC(C)OC(=O)[C@H](C)N[P@](=O)(OC[C@H]1O[C@@H](n2ccc(=O)[nH]c2=O)[C@](C)(F)[C@@H]1O)Oc1ccccc1` [drawing 460] returned a CC50 greater than 400 µM.
For the compound `C[C@@]1(O)[C@H](O)[C@@H](CO)O[C@H]1n1ccc(=S)[nH]c1=O`, the CC50 in data set [1] is greater than 100 µM; in data set [6], greater than 400 µM; in data set [2], greater than 100 µM; in data set [7] it was greater than 400 µM.
`CC(C)OC(=O)[C@H](C)NP(=O)(OC[C@H]1O[C@@H](n2ccc(=O)[nH]c2=O)[C@](C)(O)[C@@H]1O)Oc1ccccc1` (some centres unmarked) yielded a CC50 in data set [4] of 80 µM.
As to `C[C@@]1(O)[C@H](O)[C@@H](COP(=O)(O)O)O[C@H]1n1ccc(=O)[nH]c1=S`, the CC50 in data set [1], in data set [6] and in data set [7] was greater than 400 µM in each case.
Turning to `CC(C)OC(=O)[C@H](C)NP(=O)(OC[C@H]1O[C@@H](n2ccc(=O)[nH]c2=[Se])[C@](C)(O)[C@@H]1O)Oc1ccccc1` (some centres unmarked), the CC50 is greater than 100 µM in data set [1], greater than 400 µM in data set [6], greater than 400 µM in data set [2] and greater than 400 µM in data set [3].
Consider `C[C@H](NP(=O)(O)OC[C@H]1O[C@@H](n2ccc(=O)[nH]c2=S)[C@](C)(O)[C@@H]1O)C(=O)O`, for which the cytotoxic concentration (CC50) in data set [1], in data set [6] and in data set [7] was greater than 400 µM throughout.
Regarding `C[C@@]1(F)[C@H](O)[C@@H](CO)O[C@H]1n1ccc(=S)[nH]c1=O`, the CC50 in data set [1], in data set [6] and in data set [7] was greater than 400 µM in each case.
